The results in this text go back to US9175003B2, “Substituted azoanthracene derivatives and intermediates for preparation thereof” (TransTech Pharma, LLC, priority 2009, dated 2015).

human GLP-1 receptor, sequence (P43220 24-463): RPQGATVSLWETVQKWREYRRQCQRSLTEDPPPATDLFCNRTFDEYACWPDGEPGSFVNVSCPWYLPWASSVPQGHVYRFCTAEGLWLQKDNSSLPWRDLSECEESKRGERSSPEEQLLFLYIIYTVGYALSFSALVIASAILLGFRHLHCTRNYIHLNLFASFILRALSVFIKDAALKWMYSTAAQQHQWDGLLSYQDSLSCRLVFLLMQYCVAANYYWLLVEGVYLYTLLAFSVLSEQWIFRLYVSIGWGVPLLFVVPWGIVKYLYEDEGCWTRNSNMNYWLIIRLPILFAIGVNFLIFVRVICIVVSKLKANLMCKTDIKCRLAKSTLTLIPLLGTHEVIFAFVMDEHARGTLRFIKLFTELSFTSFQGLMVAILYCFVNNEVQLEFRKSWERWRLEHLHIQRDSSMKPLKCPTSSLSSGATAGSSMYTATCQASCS

This experiment has as its target human GLP-1 receptor (Homo sapiens (Human), UniProt P43220). The note with it: read-out: Mean EC50; cAMP, HTRF detection, 30 min at 37° C., HEK-293 cells expressing cloned human GLP-1 receptor. On the technique in general: Time-resolved FRET reads energy transfer from a long-lived donor to a nearby acceptor.
`Cc1nccc(-c2ccc(C[C@H](NC(=O)[C@@H]3Cc4cc5c(cc4CN3C(=O)C3CNC(=O)N3)O[C@@H](c3ccc(OCc4ccc(Cl)c(Cl)c4)cc3)CO5)C(=O)O)cc2)c1C` (stereo partly drawn) [Example 333, (S)-2-{[(3S,8S)-3-[4-(3,4-Dichloro-benzyloxy)-phenyl]-7-(2-oxo-imidazolidine-4-carbonyl)-2,3,6,7,8,9-hexahydro-[1,4]dioxino[2,3-g]isoquinoline-8-carbonyl]-amino}-3-[4-(2,3-dimethyl-pyridin-4-yl)-phenyl]-propionic acid]: the EC50 turned out to be 195 nM. In the case of `Cc1nccc(Oc2ccc(C[C@H](NC(=O)[C@@H]3Cc4cc5c(cc4CN3C(=O)N[C@@H](C)c3ccccc3)O[C@@H](c3ccc(OCc4ccc(Cl)c(Cl)c4)cc3)CO5)C(=O)O)cc2)c1C` [Example 335, (S)-2-{[(3S,8S)-3-[4-(3,4-Dichloro-benzyloxy)-phenyl]-7-((S)-1-phenyl-ethylcarbamoyl)-2,3,6,7,8,9-hexahydro-[1,4]dioxino[2,3-g]isoquinoline-8-carbonyl]-amino}-3-[4-(2,3-dimethyl-pyridin-4-yloxy)-phenyl]-propionic acid] it was 115 nM.

As to `Cc1nccc(Oc2ccc(C[C@H](NC(=O)[C@@H]3Cc4cc5c(cc4CN3C(=O)N[C@H](C)c3ccc(F)cc3)O[C@@H](c3ccc(OCc4ccc(Cl)c(Cl)c4)cc3)CO5)C(=O)O)cc2)c1C` [Example 337, (S)-2-({(3S,8S)-3-[4-(3,4-Dichloro-benzyloxy)-phenyl]-7-[(R)-1-(4-fluoro-phenyl)-ethylcarbamoyl]-2,3,6,7,8,9-hexahydro-[1,4]dioxino[2,3-g]isoquinoline-8-carbonyl}-amino)-3-[4-(2,3-dimethyl-pyridin-4-yloxy)-phenyl]-propionic acid], the EC50 is 145 nM. In the case of `Cc1ccccc1NC(=O)N1Cc2cc3c(cc2C[C@H]1C(=O)N[C@@H](Cc1ccc(Oc2ccnc(C)c2C)cc1)C(=O)O)OC[C@H](c1ccc(OCc2ccc(Cl)c(Cl)c2)cc1)O3` [Example 338, (S)-2-({(3S,8S)-3-[4-(3,4-Dichloro-benzyloxy)-phenyl]-7-o-tolylcarbamoyl-2,3,6,7,8,9-hexahydro-[1,4]dioxino[2,3-g]isoquinoline-8-carbonyl}-amino)-3-[4-(2,3-dimethyl-pyridin-4-yloxy)-phenyl]-propionic acid] it was 377 nM; in that of `Cc1nccc(Oc2ccc(C[C@H](NC(=O)[C@@H]3Cc4cc5c(cc4CN3C(=O)NC(C)C)O[C@@H](c3ccc(OCc4ccc(Cl)c(Cl)c4)cc3)CO5)C(=O)O)cc2)c1C` [Example 342, (S)-2-({(3S,8S)-3-[4-(3,4-Dichloro-benzyloxy)-phenyl]-7-isopropylcarbamoyl-2,3,6,7,8,9-hexahydro-[1,4]dioxino[2,3-g]isoquinoline-8-carbonyl}-amino)-3-[4-(2,3-dimethyl-pyridin-4-yloxy)-phenyl]-propionic acid], 204 nM; in that of `Cc1nccc(Oc2ccc(C[C@H](NC(=O)[C@@H]3Cc4cc5c(cc4CN3C(=O)NC(C)(C)C)O[C@@H](c3ccc(OCc4ccc(Cl)c(Cl)c4)cc3)CO5)C(=O)O)cc2)c1C` [Example 343, (S)-2-({(3S,8S)-7-tert-Butylcarbamoyl-3-[4-(3,4-dichloro-benzyloxy)-phenyl]-2,3,6,7,8,9-hexahydro-[1,4]dioxino[2,3-g]isoquinoline-8-carbonyl}-amino)-3-[4-(2,3-dimethyl-pyridin-4-yloxy)-phenyl]-propionic acid], 124 nM. As to `Cc1nccc(Oc2ccc(C[C@H](NC(=O)[C@@H]3Cc4cc5c(cc4CN3C(=O)NC3CCCCC3)O[C@@H](c3ccc(OCc4ccc(Cl)c(Cl)c4)cc3)CO5)C(=O)O)cc2)c1C` [Example 344, (S)-2-({(3S,8S)-7-Cyclohexylcarbamoyl-3-[4-(3,4-dichloro-benzyloxy)-phenyl]-2,3,6,7,8,9-hexahydro-[1,4]dioxino[2,3-g]isoquinoline-8-carbonyl}-amino)-3-[4-(2,3-dimethyl-pyridin-4-yloxy)-phenyl]-propionic acid], the EC50 worked out at 271 nM. In the case of `Cc1cccc(NC(=O)N2Cc3cc4c(cc3C[C@H]2C(=O)N[C@@H](Cc2ccc(Oc3ccnc(C)c3C)cc2)C(=O)O)OC[C@H](c2ccc(OCc3ccc(Cl)c(Cl)c3)cc2)O4)c1` [Example 345, (S)-2-({(3S,8S)-3-[4-(3,4-Dichloro-benzyloxy)-phenyl]-7-m-tolylcarbamoyl-2,3,6,7,8,9-hexahydro-[1,4]dioxino[2,3-g]isoquinoline-8-carbonyl}-amino)-3-[4-(2,3-dimethyl-pyridin-4-yloxy)-phenyl]-propionic acid] it was 255 nM; in that of `Cc1nccc(Oc2ccc(C[C@H](NC(=O)[C@@H]3Cc4cc5c(cc4CN3C(=O)NC3CCC3)O[C@@H](c3ccc(OCc4ccc(Cl)c(Cl)c4)cc3)CO5)C(=O)O)cc2)c1C` [Example 347, (S)-2-({(3S,8S)-7-Cyclobutylcarbamoyl-3-[4-(3,4-dichloro-benzyloxy)-phenyl]-2,3,6,7,8,9-hexahydro-[1,4]dioxino[2,3-g]isoquinoline-8-carbonyl}-amino)-3-[4-(2,3-dimethyl-pyridin-4-yloxy)-phenyl]-propionic acid], 315 nM.

For `Cc1nccc(Oc2ccc(C[C@H](NC(=O)[C@@H]3Cc4cc5c(cc4CN3C(=O)NC(C)(C)c3ccccc3)O[C@@H](c3ccc(OCc4ccc(Cl)c(Cl)c4)cc3)CO5)C(=O)O)cc2)c1C` [Example 348, (S)-2-{[(3S,8S)-3-[4-(3,4-Dichloro-benzyloxy)-phenyl]-7-(1-methyl-1-phenyl-ethylcarbamoyl)-2,3,6,7,8,9-hexahydro-[1,4]dioxino[2,3-g]isoquinoline-8-carbonyl]-amino}-3-[4-(2,3-dimethyl-pyridin-4-yloxy)-phenyl]-propionic acid], the EC50 turned out to be 262 nM. With `CCC(C)(C)NC(=O)N1Cc2cc3c(cc2C[C@H]1C(=O)N[C@@H](Cc1ccc(Oc2ccnc(C)c2C)cc1)C(=O)O)OC[C@H](c1ccc(OCc2ccc(Cl)c(Cl)c2)cc1)O3` [Example 350, (S)-2-{[(3S,8S)-3-[4-(3,4-Dichloro-benzyloxy)-phenyl]-7-(1,1-dimethyl-propylcarbamoyl)-2,3,6,7,8,9-hexahydro-[1,4]dioxino[2,3-g]isoquinoline-8-carbonyl]-amino}-3-[4-(2,3-dimethyl-pyridin-4-yloxy)-phenyl]-propionic acid] the figure was 212 nM; with `Cc1nccc(Oc2ccc(C[C@H](NC(=O)[C@@H]3Cc4cc5c(cc4CN3C(=O)NC3(C)CCC3)O[C@@H](c3ccc(OCc4ccc(Cl)c(Cl)c4)cc3)CO5)C(=O)O)cc2)c1C` [Example 351, (S)-2-{[(3S,8S)-3-[4-(3,4-Dichloro-benzyloxy)-phenyl]-7-(1-methyl-cyclobutylcarbamoyl)-2,3,6,7,8,9-hexahydro-[1,4]dioxino[2,3-g]isoquinoline-8-carbonyl]-amino}-3-[4-(2,3-dimethyl-pyridin-4-yloxy)-phenyl]-propionic acid], 109 nM; with `Cc1nccc(Oc2ccc(C[C@H](NC(=O)[C@@H]3Cc4cc5c(cc4CN3C(=O)NC3CCC(F)(F)CC3)O[C@@H](c3ccc(OCc4ccc(Cl)c(Cl)c4)cc3)CO5)C(=O)O)cc2)c1C` [Example 352, (S)-2-{[(3S,8S)-3-[4-(3,4-Dichloro-benzyloxy)-phenyl]-7-(4,4-difluoro-cyclohexylcarbamoyl)-2,3,6,7,8,9-hexahydro-[1,4]dioxino[2,3-g]isoquinoline-8-carbonyl]-amino}-3-[4-(2,3-dimethyl-pyridin-4-yloxy)-phenyl]-propionic acid], 338 nM. With `Cc1nc(C(=O)N2Cc3cc4c(cc3C[C@H]2C(=O)N[C@@H](Cc2ccc(-c3ccnc(C)c3C)cc2)C(=O)O)OC[C@H](c2ccc(OCc3c(Cl)cccc3Cl)cc2)O4)c(C)o1` [Example 355, (S)-2-{[(3S,8S)-3-[4-(2,6-Dichloro-benzyloxy)-phenyl]-7-(2,5-dimethyl-oxazole-4-carbonyl)-2,3,6,7,8,9-hexahydro-[1,4]dioxino[2,3-g]isoquinoline-8-carbonyl]-amino}-3-[4-(2,3-dimethyl-pyridin-4-yl)phenyl]-propionic acid] the figure was 45 nM; with `Cc1nc(C(=O)N2Cc3cc4c(cc3C[C@H]2C(=O)N[C@@H](Cc2ccc(-c3ccnc(C)c3C)cc2)C(=O)O)OC[C@H](c2ccc(OCc3cc(F)ccc3F)cc2)O4)c(C)o1` [Example 356, (S)-2-{[(3S,8S)-3-[4-(2,5-Difluoro-benzyloxy)-phenyl]-7-(2,5-dimethyl-oxazole-4-carbonyl)-2,3,6,7,8,9-hexahydro-[1,4]dioxino[2,3-g]isoquinoline-8-carbonyl]-amino}-3-[4-(2,3-dimethyl-pyridin-4-yl)-phenyl]-propionic acid], 57 nM; with `Cc1nc(C(=O)N2Cc3cc4c(cc3C[C@H]2C(=O)N[C@@H](Cc2ccc(-c3ccnc(C)c3C)cc2)C(=O)O)OC[C@H](c2ccc(OCc3cc(F)cc(F)c3)cc2)O4)c(C)o1` [Example 357, (S)-2-{[(3S,8S)-3-[4-(3,5-Difluoro-benzyloxy)-phenyl]-7-(2,5-dimethyl-oxazole-4-carbonyl)-2,3,6,7,8,9-hexahydro-[1,4]dioxino[2,3-g]isoquinoline-8-carbonyl]-amino}-3-[4-(2,3-dimethyl-pyridin-4-yl)-phenyl]propionic acid], 19 nM. In the case of `Cc1nc(C(=O)N2Cc3cc4c(cc3C[C@H]2C(=O)N[C@@H](Cc2ccc(-c3ccnc(C)c3C)cc2)C(=O)O)OC[C@H](c2ccc(OCc3cccc(Cl)c3F)cc2)O4)c(C)o1` [Example 359, (S)-2-{[(3S,8S)-3-[4-(3-Chloro-2-fluoro-benzyloxy)-phenyl]-7-(2,5-dimethyl-oxazole-4-carbonyl)-2,3,6,7,8,9-hexahydro-[1,4]dioxino[2,3-g]isoquinoline-8-carbonyl]-amino}-3-[4-(2,3-dimethyl-pyridin-4-yl)phenyl]-propionic acid] it was 117 nM. Take `Cc1nc(C(=O)N2Cc3cc4c(cc3C[C@H]2C(=O)N[C@@H](Cc2ccc(-c3ccnc(C)c3C)cc2)C(=O)O)OC[C@H](c2ccc(OCc3c(F)cccc3Cl)cc2)O4)c(C)o1` [Example 360, (S)-2-{[(3S,8S)-3-[4-(2-Chloro-6-fluoro-benzyloxy)-phenyl]-7-(2,5-dimethyl-oxazole-4-carbonyl)-2,3,6,7,8,9-hexahydro-[1,4]dioxino[2,3-g]isoquinoline-8-carbonyl]-amino}-3-[4-(2,3-dimethyl-pyridin-4-yl)phenyl]-propionic acid]: the 50% effective concentration (EC50) was 297 nM.

The term EC50 denotes the concentration at which the effect is half-maximal.
